We go through 41 compounds from US8802678B2, “Carbonylated (aza) cyclohexanes as dopamine D3 receptor ligands” (Bioprojet, priority 2006, dated 2014).

Structures are written as SMILES.

Usually melting point stands for the temperature, or range, at which the solid turns liquid. For the compound `CC(=O)CN1CCC(CCN2CCN(c3cccc(C(=O)C(C)C)c3)CC2)CC1.Cl.Cl`, the melting point amounted to 250 °C.

`COc1cc(OC)cc(N2CCN(CC[C@H]3CC[C@H](NC(=O)CC#N)CC3)CC2)c1` [Example 180, 2-Cyano-N-(4-{2-[4-(3,5-dimethoxyphenyl)piperazin-1-yl]ethyl}cyclohexyl)acetamide] gave a melting point of 181 to 183 °C.

In the case of `COCCCC(=O)N[C@H]1CC[C@H](CCN2CC=C(c3cccc(C(F)(F)F)c3)CC2)CC1`, the melting point is 145 °C.

The compound `COCC(=O)N[C@H]1CC[C@H](CCN2CCN(c3cccc(C(F)(F)F)c3C#N)CC2)CC1` [Example 119, N-(4-{2-[4-(2-Cyano-3-trifluoromethylphenyl)piperazin-1-yl]ethyl}cyclohexyl)-2-methoxyacetamide] returned a melting point of 172 °C.

Consider `CC(=O)CN1CCC(CCN2CCN(c3cccc(C(F)(F)F)c3C)CC2)CC1.Cl.Cl`, for which the melting point stood at 300 °C.

`CCOCC(=O)N[C@H]1CC[C@H](CCN2CCN(c3ccccc3OC)CC2)CC1` [Example 123, 2-Ethoxy-N-(4-{2-[4-(2-methoxyphenyl)piperazin-1-yl]ethyl}cyclohexyl)acetamide] registered a melting point of 210 to 214 °C.

On to `N#CCCC(=O)N[C@H]1CC[C@H](CCN2CCN(c3cccc(C(F)(F)F)c3F)CC2)CC1` [Example 214, 3-Cyano-N-(4-{2-[4-(2-fluoro-3-trifluoromethylphenyl)piperazin-1-yl]ethyl}cyclohexyl)propanamide trans/cis 95/5], for which the melting point is 153 °C.

With `O=C(N[C@H]1CC[C@H](CCN2CCN(c3cccc(C(F)(F)F)c3)CC2)CC1)C1=CCCC1` [Example 45, Cyclopent-1-enecarboxylic acid (4-{2-[4-(3-trifluoromethyl-phenyl)piperazin-1-yl]ethyl}cyclohexyl)amide], the melting point was determined as 175 °C.

Compound `N#CCCCC(=O)N[C@H]1CC[C@H](CCN2CCN(c3ccc(F)cc3F)CC2)CC1` [Example 401, 4-Cyano-N-(4-{2-[4-(2,4-difluorophenyl)piperazin-1-yl]ethyl}cyclohexyl)butanamide] returned a melting point of 167 °C.

Regarding `N#Cc1cccc(N2CCN(CC[C@H]3CC[C@H](NC(=O)C4=COCC4)CC3)CC2)c1` [Example 524, 4,5-Dihydrofuran-3-carboxylic acid (4-{2-[4-(3-cyanophenyl)piperazin-1-yl]ethyl}cyclohexyl) amide], the melting point is 165 °C.

For `CC(=O)CN1CCC(CCN2CCN(c3cc(C)cc(C)c3)CC2)CC1.Cl.Cl`, the melting point was 275 °C.

On to `Cc1ccc(C(F)(F)F)cc1N1CCN(CC[C@H]2CC[C@H](NC(=O)CCCC#N)CC2)CC1` [Example 388, 4-Cyano-N-(4-{2-[4-(2-methyl-5-trifluoromethylphenyl)piperazin-1-yl]ethyl}cyclohexyl)butyramide], for which the melting point was 153 °C.

`Cl.N#CCCC(=O)N[C@H]1CC[C@H](CCN2CCN(c3cccc(C(F)(F)F)c3)CC2)CC1`: the melting point was 230 °C.

`CCc1cccc(N2CCN(CC[C@H]3CC[C@@H](NC(=O)CC#N)CC3)CC2)c1` [Example 328, 2-Cyano-N-(4-{2-[4-(3-ethylphenyl)piperazin-1-yl]ethyl}cyclohexyl)acetamide]: the melting point was 101 °C.

The compound `COC(=O)N[C@H]1CC[C@H](CCN2CCN(c3cccc(C(F)(F)F)c3)CC2)CC1` [Example 39, (4-{2-[4-(3-Trifluoromethyl-phenyl)piperazin-1-yl]ethyl}cyclo-hexyl)carbamic acid methyl ester] had a melting point of 135 °C.

Regarding `CCc1ccc(F)c(N2CCN(CC[C@H]3CC[C@H](NC(=O)CC#N)CC3)CC2)c1` [Example 673, 2-Cyano-N-(4-{2-[4-(5-ethyl-2-fluorophenyl)piperazin-1-yl]ethyl}cyclohexyl)acetamide], the melting point came out at 180 °C.

`N#CCCC(=O)N[C@H]1CC[C@H](CCN2CCN(c3ccc(Cl)c(Cl)c3F)CC2)CC1` [Example 720, 3-Cyano-N-(4-{2-[4-(3,4-dichloro-2-fluorophenyl)piperazin-1-yl]ethyl}cyclohexyl)propanamide]: the melting point worked out at 210 °C.

Consider `CC(=O)CN1CCC(CCN2CCN(c3cccc4c3CCCCC4)CC2)CC1.Cl.Cl`, for which the melting point amounted to 300 °C.

The compound `Cl.N#CCCCC(=O)N1CCC(CCN2CCN(c3cccc4c3CCC4)CC2)CC1` came in with a melting point of 210 °C.

The compound `COCCCC(=O)N[C@H]1CC[C@H](CCN2CCN(c3cc(C)c(F)cc3Cl)CC2)CC1` [Example 580, N-(4-{2-[4-(2-Chloro-4-fluoro-5-methylphenyl)piperazin-1-yl]ethyl}cyclohexyl)-4-methoxybutanamide] had a melting point of 171 °C.

In turn, `N#CCC(=O)N[C@H]1CC[C@H](CCN2CCN(c3cc(Cl)ccc3F)CC2)CC1` [Example 171, N-(4-{2-[4-(5-Chloro-2-fluorophenyl)piperazin-1-yl]ethyl}cyclohexyl)-2-cyanoacetamide] came in with a melting point of 200 °C.

With `N#CCCCC(=O)N[C@H]1CC[C@H](CCN2CCN(c3ccccc3C#N)CC2)CC1` [Example 377, 4-Cyano-N-(4-{2-[4-(2-cyanophenyl)piperazin-1-yl]ethyl}cyclohexyl)butanamide], the melting point was 160 °C.

The compound `COCC(=O)N[C@H]1CC[C@H](CCN2CCN(c3cccc(C(F)(F)F)c3C)CC2)CC1` [Example 734, 2-Methoxy-N-(4-{2-[4-(2-methyl-3-trifluoromethylphenyl)piperazin-1-yl]ethyl}cyclohexyl)acetamide] yielded a melting point of 159 °C.

Take `CCOCC(=O)N[C@H]1CC[C@H](CCN2CCN(c3cc(C)cc(Cl)c3)CC2)CC1` [Example 577, N-(4-{2-[4-(3-Chloro-5-methylphenyl)piperazin-1-yl]ethyl}cyclohexyl)-2-ethoxyacetamide]: the melting point was found to be 100 °C.

`N#CCCCC(=O)N[C@H]1CC[C@H](CCN2CCN(c3ccc(Cl)c(Cl)c3Cl)CC2)CC1` [Example 765, 4-Cyano-N-(4-{2-[4-(2,3,4-trichlorophenyl)piperazin-1-yl]ethyl}cyclohexyl)butanamide] gave a melting point of 176 °C.

For `N#CCC(=O)N[C@H]1CC[C@H](CCN2CCN(c3cc(C#N)ccc3Cl)CC2)CC1` [Example 599, N-(4-{2-[4-(2-Chloro-5-cyanophenyl)piperazin-1-yl]ethyl}cyclohexyl)-2-cyanoacetamide], the melting point worked out at 225 °C.

In the case of `CC(=O)CN1CCC(CCN2CCN(c3cccc(F)c3C)CC2)CC1.Cl.Cl`, the melting point came to 317 °C.

With `Cc1ccc(Cl)cc1N1CCN(CC[C@H]2CC[C@H](NC(=O)CC(F)(F)F)CC2)CC1` [Example 179, N-(4-{2-[4-(5-Chloro-2-methylphenyl)piperazin-1-yl]ethyl}cyclohexyl)-3,3,3-trifluoropropanamide], the melting point is 177 to 178 °C.

`COc1cc(N2CCN(CCC3CCN(CC(C)=O)CC3)CC2)cc(C(F)(F)F)c1.Cl.Cl` displayed a melting point of 277 to 278 °C.

Compound `CC(C)(C)c1nc(N2CCN(CC[C@H]3CC[C@H](NC(=O)CC#N)CC3)CC2)cc(C(F)(F)F)n1` [Example 177, N-(4-{2-[4-(2-tert-Butyl-6-trifluoromethylpyrimidin-4-yl)piperazin-1-yl]ethyl}cyclohexyl)-2-cyanoacetamide trans/cis 85/15] came in with a melting point of 188 °C.

In turn, `CCOCC(=O)N[C@H]1CC[C@H](CCN2CCN(c3cc(C(C)(C)C)nc(C(C)(C)C)n3)CC2)CC1` [Example 121, N-(4-{2-[4-(2,6-Di-tert-butylpyrimidin-4-yl)piperazin-1-yl]ethyl}cyclohexyl)-2-ethoxyacetamide] registered a melting point of 104 °C.

Compound `CCOc1ccccc1N1CCN(CC[C@H]2CC[C@H](NC(=O)CCCC#N)CC2)CC1` [Example 439, 4-Cyano-N-(4-{2-[4-(2-ethoxyphenyl)piperazin-1-yl]ethyl}cyclohexyl)butanamide] came in with a melting point of 137 °C.

Turning to `COCC(=O)N[C@H]1CC[C@H](CCN2CCN(c3cccc4c3CCCC4)CC2)CC1` [Example 130, 2-Methoxy-N-(4-{2-[4-(5,6,7,8-tetrahydronaphthalen-1-yl)piperazin-1-yl]ethyl}cyclohexyl)acetamide], the melting point turned out to be 120 °C.

`CC(=O)CN1CCC(CCN2CCN(c3ccc(Cl)c(C(F)(F)F)c3)CC2)CC1.Cl.Cl` yielded a melting point of 263 °C.

Compound `NC(=O)CC(=O)N[C@H]1CC[C@H](CCN2CCN(c3cc(C(F)(F)F)ccc3F)CC2)CC1` [Example 671, N-(4-{2-[4-(2-Fluoro-5-trifluoromethylphenyl)piperazin-1-yl]ethyl}cyclohexyl)-malonamide] registered a melting point of 185 °C.

`CSc1cccc(N2CCN(CCC3CCN(CC(C)=O)CC3)CC2)c1` [Example 686, 1-(4-{2-[4-(3-Methylsulfanyl-phenyl)piperazin-1-yl]ethyl}-piperidin-1-yl)propan-2-one]: the melting point was determined as 113 °C.

Compound `O=C(N[C@H]1CC[C@H](CCN2CCN(c3cccc(C(F)(F)F)c3)CC2)CC1)C1=COCC1` [Example 564, 4,5-Dihydrofuran-3-carboxylic acid (4-{2-[4-(3-trifluoromethylphenyl)piperazin-1-yl]ethyl}cyclohexyl) amide] yielded a melting point of 175 °C.

In turn, `CC(=O)CN1CCC(CCN2CCN(c3ccc(F)cc3F)CC2)CC1.Cl.Cl` came in with a melting point of 260 °C.

With `N#CCC(=O)N[C@H]1CC[C@H](CCN2CCN(c3cccc(C(F)(F)F)c3F)CC2)CC1` [Example 158, 2-Cyano-N-(4-{2-[4-(2-fluoro-3-trifluoromethylphenyl)piperazin-1-yl]ethyl}cyclohexyl)acetamide], the melting point is 194 °C.

For `COCC(=O)N[C@H]1CC[C@H](CCN2CCN(c3ccc(F)cc3F)CC2)CC1` [Example 48, N-(4-{2-[4-(2,4-Difluorophenyl)-piperazin-1-yl]ethyl}cyclohexyl)-2-methoxyacetamide], the melting point was determined as 154 °C.

Consider `CCOCC(=O)N[C@H]1CC[C@H](CCN2CCN(c3ccc(C)c(F)c3)CC2)CC1` [Example 539, 2-Ethoxy-N-(4-{2-[4-(3-fluoro-4-methylphenyl)piperazin-1-yl]ethyl}cyclohexyl)acetamide], for which the melting point was 124 °C.
